According to patent US7060678B2, “Peptides comprising furanoid sugar amino acids for the treatment of cancer” (Dabur Research Foundation, priority 2003, dated 2006):
Where two headings read alike, the source gives them in different places. Starred links: 1 amine or outer side, 2 acyl side, 3 side chain; linkers in the order of their positions; H or OH if unused. Non-standard residues stand in square brackets, D forms with d. Residues, ends and D or L forms follow the SMILES beside them. X2 = O=C([C@@H]1CC[C@H](CN[*:1])O1)[*:2]; X1 = O=C(C1CCC(CN[*:1])O1)[*:2]

Key:
HeP-2 (larynx) = test: MTT cytotoxicity assay, HeP-2 cells; type: cell-based, human; conditions: 48 hours
Source text: (§1) The following cell lines were used.

HeP-G2 (liver) = test: MTT cytotoxicity assay, HeP-G2 cells; type: cell-based, human; conditions: 48 hours
Source text: as §1

KB (oral) = test: MTT cytotoxicity assay, KB cells; type: cell-based, human; conditions: 48 hours
Source text: as §1

[1] = system: MiaPaCa.2 (human pancreas); test: MTT cytotoxicity assay, MiaPaCa.2 cells; type: cell-based; conditions: 48 hours
Source text: as §1

PTC (colon) = test: MTT cytotoxicity assay, PTC cells; type: cell-based, human; conditions: 48 hours
Source text: as §1

ECV-304 (endothelial) = conditions: ECV-304 cells, 48 hours, NA = Not Active
Source text: Although sterile phosphate buffered saline was used to prepare each stock solution for the testing described in the following example, other diluents may be used such as buffered saline, isotonic NaCl, Ringer's solution, water, distilled water, polyethylene glycol (neat or in water), Tween in water, dimethylsulfoxide up to 50% in water, propylene glycol (neat or in water), phosphate buffered saline, balanced salt solution, glycerol, and other conventional fluids that are suitable for parentral administration. To obtain a pH in the range of approximately 3.5 to 7.0, for each stock solution, the pH can be adjusted by using 1N HCl for lowering the pH or 1N NaOH for raising the pH, although other buffers such as citrate buffer, phosphate buffer and the like or other conventional agents for adjusting the pH can be used.
The MTT assay is based on the principle of uptake of MTT [3-[4,5-dimethylthiazol-2-yl]-2,5-diphenyl tetrazolium bromide], a tetrazolium salt, by the metabolically active cells where it is metabolized by active mitochondria into a blue colored formazan product which can be read spectrophotometrically. […] The formazan crystals formed inside the cells were dissolved with a detergent comprising of 10% Sodium dodecyl sulfate and 0.01 N HCl and optical density read on a multi-scan ELISA reader. The optical density was directly proportional to the number of proliferating and metabolically active cells. The following cell lines were used. PA1(human ovary), PTC (colon), HeP-2 (larynx), MiaPaCa.2 (human pancreas), KB (oral), ECV-304 (endothelial) and HeP-G2 (liver).

[2] = system: human colon adenocarcinoma (PTC) xenografts; test: In vivo antitumour activity on primary tumor (colon) xenografted mice; design: species or system Balb/c athymic mice; conditions: PTC xenografts in nude mice; intravenously 0.5 mg/Kg. B. Wt twice a day; till day 21
Procedure: The antitumor activity of the peptide (SEQ ID NO: 12) was studied in human colon adenocarcinoma (PTC) xenografts in nude mice. PTC tumor xenografts were grown in Balb/c athymic mice by subcutaneous inoculation of a single cell suspension of PTC cells (15×10^6 cells/100 μL). The tumor bearing animals were divided into 2 groups of five animals each including one group comprising untreated control animals. Treatment with novel peptide was initiated when the average tumor volumes, as measured using a vernier caliper, were between 400–800 mm^3. Solution of SEQ ID NO 12 was prepared at a concentration of 100 μg/ml and intravenously administered to the assigned group of tumor bearing animals at a dose of 0.5 mg/Kg. B. Wt twice a day so that the total dose of 1 mg/Kg. B. Wt was administered to each animal. The treatment was continued for a period of 21 days.
The antitumor activity of the compounds was monitored by measuring tumor volumes every fourth day using the formula W*W*L*0.4 (W=smaller diameter, L=larger diameter). The percentage inhibition of tumor growth was calculated using the formula (1-tumor volume-treated/tumor volume-control)* 100.

PA1 (human ovary) = test: MTT cytotoxicity assay, PA1 cells; type: cell-based; conditions: human, 48 hours
Source text: as §1

SMILES | Percent Cytotoxicity (ECV-304 (endothelial); peptide 1 nM) [%] | Percent Cytotoxicity (ECV-304 (endothelial); peptide 10 nM) [%] | Percent Cytotoxicity (ECV-304 (endothelial); peptide 100 nM) [%] | Percent Cytotoxicity (ECV-304 (endothelial); peptide 1 μM) [%] | Percent Cytotoxicity (HeP-2 (larynx); human, 1 nM) [%] | Percent Cytotoxicity (HeP-2 (larynx); human, 10 nM) [%] | Percent Cytotoxicity (HeP-2 (larynx); human, 100 nM) [%] | Percent Cytotoxicity (HeP-2 (larynx); human, 1 μM) [%] | Percent Cytotoxicity (PA1 (human ovary); 1 nM) [%] | Percent Cytotoxicity (PA1 (human ovary); 10 nM) [%] | Percent Cytotoxicity (PA1 (human ovary); 100 nM) [%] | Percent Cytotoxicity (PA1 (human ovary); 1 μM) [%] | Percent Cytotoxicity ([1]; human, 1 nM) [%] | Percent Cytotoxicity ([1]; human, 10 nM) [%] | Percent Cytotoxicity ([1]; human, 100 nM) [%] | Percent Cytotoxicity ([1]; human, 1 μM) [%] | Percent Cytotoxicity (PTC (colon); human, 1 nM) [%] | Percent Cytotoxicity (PTC (colon); human, 10 nM) [%] | Percent Cytotoxicity (PTC (colon); human, 100 nM) [%] | other results
CSCC[C@H](NC(=O)[C@@H](N)CC(C)C)C(=O)NC[C@H]1CC[C@@H](C(=O)N[C@H](C(=O)N[C@@H](Cc2ccc(O)cc2)C(=O)N[C@@H](CC(C)C)C(=O)N[C@@H](CCCCN)C(=O)O)[C@@H](C)O)O1 [SEQ ID NO: 9, Leu-Met-Saa4-Thr-Tyr-Leu-Lys] (H-LM[X2]TYLK-OH) | 12.8 ± 1.4 | 15.8 ± 1.1 | 10.4 ± 2.0 | 7.9 ± 0.4 |  |  |  |  |  |  |  |  |  |  |  |  |  |  |  | Percent Cytotoxicity (HeP-2 (larynx); HeP-2 cells, peptide 1 nM, NA = Not Active): 20.9 ± 2.0%; Percent Cytotoxicity (HeP-2 (larynx); HeP-2 cells, peptide 10 nM, NA = Not Active): 21.0 ± 1.9%; Percent Cytotoxicity (HeP-2 (larynx); HeP-2 cells, peptide 100 nM, NA = Not Active): 18.8 ± 1.9%; Percent Cytotoxicity (HeP-2 (larynx); HeP-2 cells, peptide 1 μM, NA = Not Active): 14.6 ± 1.6%; Percent Cytotoxicity (HeP-G2 (liver); HeP-G2 cells, peptide 1 nM, NA = Not Active): 11.2 ± 1.1%; Percent Cytotoxicity (HeP-G2 (liver); HeP-G2 cells, peptide 10 nM, NA = Not Active): 10.7 ± 1.1%; Percent Cytotoxicity (KB (oral); KB cells, peptide 1 nM, NA = Not Active): 14.5 ± 1.8%; Percent Cytotoxicity (KB (oral); KB cells, peptide 10 nM, NA = Not Active): 12.5 ± 1.9%; Percent Cytotoxicity (KB (oral); KB cells, peptide 100 nM, NA = Not Active): 10.5 ± 1.2%; Percent Cytotoxicity ([1]; MiaPaCa.2 cells, peptide 1 nM, NA = Not Active): 14.8 ± 2.9%; Percent Cytotoxicity ([1]; MiaPaCa.2 cells, peptide 10 nM, NA = Not Active): 12.9 ± 1.5%; Percent Cytotoxicity ([1]; MiaPaCa.2 cells, peptide 100 nM, NA = Not Active): 9.3 ± 1.1%; Percent Cytotoxicity ([1]; MiaPaCa.2 cells, peptide 1 μM, NA = Not Active): 5.9 ± 0.0%; Percent Cytotoxicity (PTC (colon); PTC cells, peptide 1 nM, NA = Not Active): 33.5 ± 2.9%; Percent Cytotoxicity (PTC (colon); PTC cells, peptide 10 nM, NA = Not Active): 31.9 ± 2.8%; Percent Cytotoxicity (PTC (colon); PTC cells, peptide 100 nM, NA = Not Active): 29.5 ± 2.7%; Percent Cytotoxicity (PTC (colon); PTC cells, peptide 1 μM, NA = Not Active): 26.0 ± 2.2%
CSCC[C@H](NC(=O)[C@@H](N)CC(C)C)C(=O)N[C@@H](Cc1ccc(O)cc1)C(=O)NCC1CCC(C(=O)N[C@@H](Cc2ccc(O)cc2)C(=O)N[C@@H](CC(C)C)C(=O)N[C@@H](CCCCN)C(=O)O)O1 (stereo partly drawn) [SEQ ID NO: 12, Leu-Met-Tyr-Saa3-Tyr-Leu-Lys] (H-LMY[X1]YLK-OH) | 32.0 ± 3.9 | 36.9 ± 3.2 | 27.9 ± 2.9 | 22.2 ± 2.2 | 21.9 ± 2.9 | 39.3 ± 3.2 | 32.2 ± 1.9 | 28.9 ± 3.2 | 20.2 ± 2.1 | 24.6 ± 2.7 | 39.3 ± 3.0 | 32.1 ± 2.0 | 23.8 ± 3.2 | 30.6 ± 3.9 | 21.9 ± 0.2 | 13.9 ± 2.7 | 12.7 ± 1.8 | 14.8 ± 1.9 | 10.8 ± 2.0 | antitumor activity on PTC xenografts (tumor volume kinetics, FIG. 1) [2]: significant antitumor activity; Percent Cytotoxicity (KB (oral); human, 1 nM): 32.9 ± 4.3%; Percent Cytotoxicity (KB (oral); human, 10 nM): 37.4 ± 2.9%; Percent Cytotoxicity (KB (oral); human, 100 nM): 33.2 ± 0.4%; Percent Cytotoxicity (KB (oral); human, 1 μM): 19.9 ± 1.9%
CSCC[C@H](N)C(=O)NC[C@H]1CC[C@@H](C(=O)N[C@@H](Cc2ccc(O)cc2)C(=O)N[C@@H](CC(C)C)C(=O)O)O1 [SEQ ID NO: 17, Met-Saa4-Tyr-Leu] | 16.4 ± 1.9 | 13.9 ± 0.5 | 11.9 ± 1.1 |  | 33.6 ± 2.7 | 31.7 ± 3.2 | 29.0 ± 0.4 | 27.9 ± 2.9 | 18.2 ± 1.1 | 17.8 ± 1.7 | 15.9 ± 0.6 | 6.0 ± 0.7 | 23.0 ± 2.1 | 21.8 ± 1.9 | 17.0 ± 0.9 | 16.0 ± 1.4 | 12.0 ± 1.7 | 11.9 ± 1.4 | 10.4 ± 0.6 | Percent Cytotoxicity (HeP-G2 (liver); human, 1 nM): 12.8 ± 0.6%; Percent Cytotoxicity (HeP-G2 (liver); human, 10 nM): 17.9 ± 1.4%; Percent Cytotoxicity (HeP-G2 (liver); human, 100 nM): 20.9 ± 1.4%; Percent Cytotoxicity (HeP-G2 (liver); human, 1 μM): 12.0 ± 0.7%; Percent Cytotoxicity (PTC (colon); human, 1 μM): 8.4 ± 1.0%
